Reference: ChEMBL document CHEMBL1201862, “PubChem BioAssay data set” (2004)
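Values below derive from 48-hour exposures of cells grown in 96-well plates, with endpoints linearly interpolated between the two concentrations bracketing the appropriate inhibition level. GI50 = concentration required for 50% inhibition of growth.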 Active and inactive are the calls of the source. No stated cut-off is given here; in the data, active = GI50 up to about 1.1 µM and inactive = higher.

Legend:
Assay in all cases: inhibition of tumour cell growth, NCI panel, 48 h
786-0 = test system: 786-0
HT-29 = test system: HT-29
U-251 = test system: U-251
SK-MEL-5 = test system: SK-MEL-5
RXF 393 = test system: RXF 393
M14 = test system: M14
OVCAR-8 = test system: OVCAR-8
A549 = test system: A549
NCI-H23 = test system: NCI-H23
CAKI-1 = test system: CAKI-1
SW-620 = test system: SW-620
HOP-92 = test system: HOP-92
Malme-3M = test system: Malme-3M
HCC 2998 = test system: HCC 2998
OVCAR-4 = test system: OVCAR-4
SK-MEL-2 = test system: SK-MEL-2
SK-OV-3 = test system: SK-OV-3
UACC-257 = test system: UACC-257

Measured: GI50

O=c1c2ccccc2c(=O)n2n1CC=CC2
inactive: 786-0 > 100 µM | HT-29 > 100 µM | U-251 > 100 µM | SK-MEL-5 > 100 µM | RXF 393 > 100 µM | M14 > 100 µM | OVCAR-8 > 100 µM | A549 > 100 µM | NCI-H23 > 100 µM | CAKI-1 > 100 µM | SW-620 > 100 µM | HOP-92 > 100 µM | Malme-3M > 100 µM | HCC 2998 > 100 µM | OVCAR-4 > 100 µM | SK-MEL-2 > 100 µM | SK-OV-3 > 100 µM | UACC-257 > 100 µM

CCOc1ccc(/N=N/c2c(-c3ccccc3)nn(C(=O)CC(=O)Nc3ccccc3Cl)c2-c2ccccc2)cc1
inactive: 786-0 > 100 µM | HT-29 33.7 µM | U-251 48.9 µM | SK-MEL-5 44.6 µM | RXF 393 34.2 µM | M14 > 100 µM | OVCAR-8 89.7 µM | A549 67.3 µM | NCI-H23 56.9 µM | CAKI-1 23.4 µM | SW-620 > 100 µM | HOP-92 48.8 µM | Malme-3M > 100 µM | HCC 2998 41.5 µM | OVCAR-4 47.4 µM | SK-MEL-2 > 100 µM | SK-OV-3 > 100 µM | UACC-257 80.4 µM

Clc1cccc(C2SCc3nc4ccccc4n32)c1Cl (stereo not drawn)
inactive: 786-0 17.7 µM | HT-29 13.6 µM | U-251 17.5 µM | SK-MEL-5 14.1 µM | RXF 393 15.6 µM | M14 16.6 µM | OVCAR-8 19 µM | A549 17.9 µM | NCI-H23 17.8 µM | CAKI-1 16.3 µM | SW-620 17.1 µM | HOP-92 15.2 µM | OVCAR-4 13.9 µM | SK-MEL-2 16.7 µM | SK-OV-3 20.1 µM | UACC-257 15.2 µM

O=CC1=CCCN(CCc2c[nH]c3ccccc23)C1
inactive: 786-0 62.2 µM | HT-29 56.4 µM | U-251 52.5 µM | SK-MEL-5 62.8 µM | RXF 393 30.5 µM | OVCAR-8 48.5 µM | A549 186 µM | NCI-H23 47.6 µM | CAKI-1 75.5 µM | SW-620 17.6 µM | HOP-92 64.9 µM | Malme-3M 64.7 µM | HCC 2998 71.6 µM | SK-MEL-2 63.5 µM | SK-OV-3 86.5 µM | UACC-257 63.8 µM

COc1c(-c2ccccc2)nc2ccc(Oc3ccccc3)nn12
inactive: 786-0 > 61.5 µM | HT-29 37 µM | U-251 > 80.5 µM | SK-MEL-5 33.2 µM | RXF 393 > 38.8 µM | M14 > 59.8 µM | OVCAR-8 > 64 µM | A549 > 57.5 µM | NCI-H23 > 49 µM | CAKI-1 > 68.4 µM | SW-620 > 75.7 µM | HOP-92 > 100 µM | Malme-3M 37.8 µM | HCC 2998 > 64.9 µM | OVCAR-4 > 36.3 µM | SK-MEL-2 > 54 µM | SK-OV-3 > 100 µM | UACC-257 > 54.8 µM

CCOC(=O)C1C(=O)C(C(=O)OCC)C(c2ccccc2)N(C)C1c1ccccc1 (stereo not drawn)
inactive: 786-0 > 100 µM | HT-29 > 100 µM | U-251 95.9 µM | SK-MEL-5 66.4 µM | RXF 393 > 100 µM | M14 > 100 µM | OVCAR-8 > 100 µM | A549 > 100 µM | NCI-H23 > 100 µM | CAKI-1 > 100 µM | SW-620 > 100 µM | HOP-92 > 100 µM | Malme-3M > 100 µM | OVCAR-4 > 100 µM | SK-MEL-2 > 100 µM | SK-OV-3 > 100 µM | UACC-257 > 100 µM

Nc1nc2c3nc(Nc4ccccc4)sc3nc(=O)n2c2sc(Nc3ccccc3)nc12
inactive: 786-0 > 100 µM | HT-29 > 100 µM | U-251 > 100 µM | SK-MEL-5 > 100 µM | RXF 393 > 100 µM | M14 > 100 µM | OVCAR-8 > 100 µM | A549 > 100 µM | NCI-H23 > 100 µM | SW-620 > 100 µM | HOP-92 > 100 µM | Malme-3M > 100 µM | HCC 2998 > 100 µM | OVCAR-4 > 100 µM | SK-OV-3 > 100 µM | UACC-257 > 100 µM

O=[N+]([O-])c1ccc2occ3c2c1CCC3
inactive: 786-0 > 100 µM | HT-29 > 100 µM | U-251 > 100 µM | SK-MEL-5 > 100 µM | RXF 393 > 100 µM | M14 > 100 µM | OVCAR-8 > 100 µM | A549 > 100 µM | NCI-H23 > 100 µM | SW-620 > 100 µM | HOP-92 35.2 µM | Malme-3M > 100 µM | HCC 2998 > 100 µM | OVCAR-4 > 100 µM | SK-MEL-2 > 100 µM | SK-OV-3 > 100 µM | UACC-257 > 100 µM

CC(=O)OC1C/C(C)=C/CCC(C)/C=C/C2(C)CCC(C(C)(C)O)C12 (stereo not drawn)
inactive: 786-0 65 µM | HT-29 33.4 µM | U-251 39.4 µM | SK-MEL-5 47.6 µM | RXF 393 14 µM | M14 52.6 µM | OVCAR-8 57 µM | A549 53 µM | NCI-H23 42.5 µM | CAKI-1 59 µM | SW-620 47.5 µM | HOP-92 18.5 µM | Malme-3M 63 µM | HCC 2998 57.4 µM | OVCAR-4 49.8 µM | SK-MEL-2 34.4 µM | SK-OV-3 > 100 µM | UACC-257 26.1 µM

C1CCN(c2nc(=[N+]3CCCCC3)ss2)CC1
inactive: 786-0 > 100 µM | HT-29 > 100 µM | U-251 49.5 µM | SK-MEL-5 > 100 µM | RXF 393 > 100 µM | M14 > 100 µM | OVCAR-8 > 100 µM | A549 55.8 µM | NCI-H23 73.3 µM | CAKI-1 > 100 µM | SW-620 > 100 µM | HOP-92 > 100 µM | Malme-3M > 100 µM | HCC 2998 > 100 µM | OVCAR-4 > 100 µM | SK-MEL-2 > 100 µM | SK-OV-3 71.9 µM | UACC-257 > 100 µM

C/C=C/COC(=O)CO[N+](=O)[O-]
inactive: 786-0 > 100 µM | HT-29 > 100 µM | U-251 > 100 µM | RXF 393 > 100 µM | M14 > 100 µM | OVCAR-8 > 100 µM | A549 > 100 µM | NCI-H23 > 100 µM | CAKI-1 > 100 µM | SW-620 > 100 µM | HOP-92 > 100 µM | Malme-3M > 100 µM | HCC 2998 > 100 µM | OVCAR-4 > 100 µM | SK-MEL-2 > 100 µM | SK-OV-3 > 100 µM | UACC-257 > 100 µM

CCCCCCC(C)CCCCCCCCCCC(=O)O (stereo not drawn)
inactive: 786-0 > 100 µM | HT-29 > 100 µM | U-251 > 100 µM | SK-MEL-5 > 100 µM | RXF 393 > 100 µM | M14 > 100 µM | OVCAR-8 > 100 µM | A549 > 100 µM | NCI-H23 > 100 µM | CAKI-1 > 100 µM | SW-620 > 100 µM | HOP-92 > 100 µM | Malme-3M > 100 µM | OVCAR-4 > 100 µM | SK-MEL-2 > 100 µM | SK-OV-3 > 100 µM | UACC-257 > 100 µM

CCCCC(/C=N/NC(=N)N)CC.Cc1cc(O)c(C(C)C)cc1S(=O)(=O)O
inactive: 786-0 > 100 µM | U-251 33.4 µM | RXF 393 24.9 µM | M14 36.2 µM | OVCAR-8 > 100 µM | A549 65.8 µM | NCI-H23 35 µM | SW-620 27 µM | Malme-3M 43.9 µM | HCC 2998 17.5 µM | SK-OV-3 59.8 µM | UACC-257 41.3 µM

O=C1CCNC(=O)NC1
inactive: 786-0 > 100 µM | HT-29 > 100 µM | U-251 > 100 µM | SK-MEL-5 > 100 µM | RXF 393 > 100 µM | M14 > 100 µM | OVCAR-8 > 100 µM | A549 > 100 µM | CAKI-1 > 100 µM | SW-620 > 100 µM | HOP-92 > 100 µM | Malme-3M > 100 µM | OVCAR-4 > 100 µM | SK-MEL-2 > 100 µM | SK-OV-3 > 100 µM | UACC-257 > 100 µM

O=C1C(=O)N(C(=O)c2ccc(Cl)c(Cl)c2)c2ccccc21
inactive: 786-0 > 100 µM | HT-29 > 100 µM | U-251 > 100 µM | SK-MEL-5 > 100 µM | RXF 393 > 100 µM | M14 > 100 µM | OVCAR-8 > 100 µM | A549 > 100 µM | NCI-H23 > 100 µM | SW-620 > 100 µM | OVCAR-4 > 100 µM | SK-OV-3 > 100 µM

Cc1ccccc1NC(=O)CC1C(=O)Nc2ccccc2[S+]1[O-] (stereo not drawn)
inactive: 786-0 49.7 µM | HT-29 > 100 µM | U-251 51.1 µM | SK-MEL-5 > 100 µM | RXF 393 26.6 µM | M14 > 100 µM | OVCAR-8 47.9 µM | A549 > 100 µM | NCI-H23 > 100 µM | CAKI-1 > 100 µM | SW-620 > 100 µM | HOP-92 52.7 µM | Malme-3M > 100 µM | HCC 2998 > 100 µM | OVCAR-4 71.6 µM | SK-MEL-2 > 100 µM | UACC-257 > 100 µM

COc1cc(/C=C/c2cccnc2)cc(OC)c1OC
inactive: 786-0 > 100 µM | HT-29 > 100 µM | U-251 > 100 µM | SK-MEL-5 47.5 µM | RXF 393 > 100 µM | M14 > 100 µM | OVCAR-8 > 100 µM | A549 > 100 µM | NCI-H23 > 100 µM | CAKI-1 > 100 µM | SW-620 > 100 µM | HOP-92 31.8 µM | Malme-3M > 100 µM | OVCAR-4 > 100 µM | UACC-257 > 100 µM
